Measurements reported in the supplement of paper PMC11061612.

How the values were obtained:
Test in all cases: combination Emax (second highest fraction inhibited in the dose matrix, 72 h); higher = more inhibition; extreme values may be limits of the assay
[1] = tested on: C-4-I (Cervical Carcinoma)
Method in brief: (§1)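 After 24 hours at 37°C and 5% CO2 in 1536-well plates, cells in DMEM/F12 or RPMI plus 10% FBS received two-drug dose matrices for 72 hours. Viability came from CellTiter-Glo 2.0 luminescence and was scaled as inhibition, anchored at 0 by vehicle wells and at 1 by blank wells. Combination Emax is taken as the second-highest inhibition in the matrix, and Bliss excess as the observed combination effect less EA + EB − EA·EB, with EA and EB the single-agent effects.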

[2] = tested on: JVM-3 (B-Cell Non-Hodgkin's Lymphoma)
Method in brief: as §1

[3] = tested on: OSC-20 (Oral Cavity Carcinoma)
Method in brief: as §1

[4] = tested on: SU8686 (Pancreatic Carcinoma)
Method in brief: as §1

CN(CCO)CC[C@H](CSc1ccccc1)Nc1ccc(S(=O)(=O)NC(=O)c2ccc(N3CCC([C@@H](O)c4ccccc4-c4ccc(Cl)cc4)CC3)cc2)cc1S(=O)(=O)C(F)(F)F [AZD4320] + C1CN(CCC1(C(=O)N[C@@H](CCO)C2=CC=C(C=C2)Cl)N)C3=NC=NC4=C3C=CN4 [Capivasertib] (first compound max 1 µM, 7x7, partner max 3 µM)
combination Emax [1]: 0.145 | combination Emax [2]: 0.889 | combination Emax [3]: 0.0937 | combination Emax [4]: 0.0053

CN(CCO)CC[C@H](CSc1ccccc1)Nc1ccc(S(=O)(=O)NC(=O)c2ccc(N3CCC([C@@H](O)c4ccccc4-c4ccc(Cl)cc4)CC3)cc2)cc1S(=O)(=O)C(F)(F)F [AZD4320] + C=CCn1c(=O)c2cnc(Nc3ccc(N4CCN(C)CC4)cc3)nc2n1-c1cccc(C(C)(C)O)n1 [AZD1775] (first compound max 1 µM, partner max 1 µM)
combination Emax [1]: 0.946 | combination Emax [2]: 1 | combination Emax [3]: 0.119 | combination Emax [4]: 0.238

CN(CCO)CC[C@H](CSc1ccccc1)Nc1ccc(S(=O)(=O)NC(=O)c2ccc(N3CCC([C@@H](O)c4ccccc4-c4ccc(Cl)cc4)CC3)cc2)cc1S(=O)(=O)C(F)(F)F [AZD4320] + CCN(CCO)CCCOc1ccc2c(Nc3cc(CC(=O)Nc4cccc(F)c4)[nH]n3)ncnc2c1 [AZD2811] (first compound max 1 µM, 7x7, partner max 1 µM)
combination Emax [1]: 0.657 | combination Emax [2]: 1 | combination Emax [3]: 0.291 | combination Emax [4]: 0.155

CN(CCO)CC[C@H](CSc1ccccc1)Nc1ccc(S(=O)(=O)NC(=O)c2ccc(N3CCC([C@@H](O)c4ccccc4-c4ccc(Cl)cc4)CC3)cc2)cc1S(=O)(=O)C(F)(F)F [AZD4320] + C[C@@H]1COCCN1C2=NC(=NC(=C2)C3(CC3)[S@](=N)(=O)C)C4=C5C=CNC5=NC=C4 [AZD6738] (first compound max 1 µM, 7x7, partner max 10 µM)
combination Emax [1]: 0.952 | combination Emax [2]: 0.993 | combination Emax [3]: 0.358 | combination Emax [4]: 0.205

CN(CCO)CC[C@H](CSc1ccccc1)Nc1ccc(S(=O)(=O)NC(=O)c2ccc(N3CCC([C@@H](O)c4ccccc4-c4ccc(Cl)cc4)CC3)cc2)cc1S(=O)(=O)C(F)(F)F [AZD4320] + C[C@@H](Nc1cc(F)cc(F)c1)c1cc(C(=O)N(C)C)cc2c(=O)cc(N3CCOCC3)oc12 [AZD8186] (first compound max 1 µM, 7x7, partner max 3 µM)
combination Emax [1]: 0.611 | combination Emax [2]: 1 | combination Emax [3]: 0.36 | combination Emax [4]: 0.216

CN(CCO)CC[C@H](CSc1ccccc1)Nc1ccc(S(=O)(=O)NC(=O)c2ccc(N3CCC([C@@H](O)c4ccccc4-c4ccc(Cl)cc4)CC3)cc2)cc1S(=O)(=O)C(F)(F)F [AZD4320] + Cc1cc2ncnn2cc1Nc1ncc2c(n1)n(C1CCOCC1)c(=O)n2C [AZD7648] (first compound max 1 µM, 7x7, partner max 10 µM)
combination Emax [1]: 0.132 | combination Emax [2]: 0.916 | combination Emax [3]: 0.0714 | combination Emax [4]: 0.0978

CN(CCO)CC[C@H](CSc1ccccc1)Nc1ccc(S(=O)(=O)NC(=O)c2ccc(N3CCC([C@@H](O)c4ccccc4-c4ccc(Cl)cc4)CC3)cc2)cc1S(=O)(=O)C(F)(F)F [AZD4320] + Cn1cnc2c(F)c(Nc3ccc(Br)cc3Cl)c(C(=O)NOCCO)cc21 [Selumetinib] (first compound max 1 µM, 7x7, partner max 3 µM)
combination Emax [1]: 0.52 | combination Emax [2]: 1 | combination Emax [3]: 0.321 | combination Emax [4]: 0.228

Cc1cc2ncnn2cc1Nc1ncc2c(n1)n(C1CCOCC1)c(=O)n2C [AZD7648] + C=CCn1c(=O)c2cnc(Nc3ccc(N4CCN(C)CC4)cc3)nc2n1-c1cccc(C(C)(C)O)n1 [AZD1775] (first compound max 10 µM, partner max 1 µM)
combination Emax [1]: 0.899 | combination Emax [2]: 0.904 | combination Emax [3]: 0.354 | combination Emax [4]: 0.224

Cc1cc2ncnn2cc1Nc1ncc2c(n1)n(C1CCOCC1)c(=O)n2C [AZD7648] + CCN(CCO)CCCOc1ccc2c(Nc3cc(CC(=O)Nc4cccc(F)c4)[nH]n3)ncnc2c1 [AZD2811] (first compound max 10 µM, 7x7, partner max 1 µM)
combination Emax [1]: 0.298 | combination Emax [2]: 0.592 | combination Emax [3]: 0.454 | combination Emax [4]: 0.139

Cc1cc2ncnn2cc1Nc1ncc2c(n1)n(C1CCOCC1)c(=O)n2C [AZD7648] + CN(C)CCCOc1ccc(-c2ccc3ncc4c(c3c2)n(C2CCOCC2)c(=O)n4C)cn1 [AZD0156] (first compound max 10 µM, 7x7, partner max 1 µM)
combination Emax [1]: 0.211 | combination Emax [2]: 0.638 | combination Emax [3]: 0.224 | combination Emax [4]: 0.143

Cc1cc2ncnn2cc1Nc1ncc2c(n1)n(C1CCOCC1)c(=O)n2C [AZD7648] + C[C@@H]1COCCN1C2=NC(=NC(=C2)C3(CC3)[S@](=N)(=O)C)C4=C5C=CNC5=NC=C4 [AZD6738] (first compound max 10 µM, 7x7, partner max 10 µM)
combination Emax [1]: 0.929 | combination Emax [2]: 0.809 | combination Emax [3]: 0.41 | combination Emax [4]: 0.232

Cc1cc2ncnn2cc1Nc1ncc2c(n1)n(C1CCOCC1)c(=O)n2C [AZD7648] + O=C(c1cc(Cc2n[nH]c(=O)c3ccccc23)ccc1F)N1CCN(C(=O)C2CC2)CC1 [Olaparib] (first compound max 10 µM, 7x7, partner max 10 µM)
combination Emax [1]: 0.224 | combination Emax [2]: 0.499 | combination Emax [3]: 0.265 | combination Emax [4]: 0.0508

Cc1nc(Nc2ncc(C(=O)Nc3c(C)cccc3Cl)s2)cc(N2CCN(CCO)CC2)n1 [Dasatinib] + CC(=O)Nc1cccc(-n2c(=O)n(C3CC3)c(=O)c3c(Nc4ccc(I)cc4F)n(C)c(=O)c(C)c32)c1 [Trametinib] (first compound max 2 µM, 7x7, partner max 1 µM)
combination Emax [1]: 0.731 | combination Emax [3]: 0.434 | combination Emax [4]: 0.388

COc1cc2ncnc(Nc3ccc(F)c(Cl)c3)c2cc1OCCCN1CCOCC1 [Gefitinib] + CC(C)n1c(=O)n(C)c2cnc3cc(F)c(-c4ccc(OCCCN5CCCCC5)nc4)cc3c21 [AZD1390] (first compound max 10 µM, 7x7, partner max 0.3 µM)
combination Emax [1]: 0.387 | combination Emax [3]: 0.064 | combination Emax [4]: 0.082

COc1cc2c(cc1OCCCCCOc1cc3c(cc1OC)C(=O)N1C=C(C)C[C@H]1C=N3)N=C[C@@H]1CC(C)=CN1C2=O [SG3199] + O=C(c1cc(Cc2n[nH]c(=O)c3ccccc23)ccc1F)N1CCN(C(=O)C2CC2)CC1 [Olaparib] (first compound max 0.001 µM, 7x7, partner max 10 µM)
combination Emax [1]: 0.184 | combination Emax [2]: 0.335 | combination Emax [3]: 0.145 | combination Emax [4]: 0.0347

C[C@@H](c1ccc2nccn2c1)n1nnc2ncc(-c3cnn(C)c3)nc21 [Savolitinib] + CC1(C)CCC(CN2CCN(c3ccc(C(=O)NS(=O)(=O)c4ccc(NCC5CCOCC5)c([N+](=O)[O-])c4)c(Oc4cnc5[nH]ccc5c4)c3)CC2)=C(c2ccc(Cl)cc2)C1 [Venetoclax] (first compound max 1 µM, 7x7, partner max 1 µM)
combination Emax [1]: 0.0949 | combination Emax [3]: 0.149 | combination Emax [4]: 0.0716

C[C@@H](c1ccc2nccn2c1)n1nnc2ncc(-c3cnn(C)c3)nc21 [Savolitinib] + Cc1c2c(nn1C)CSCc1cc(n(C)n1)CSc1cc(c3ccccc3c1)OCCCc1c(C(=O)O)n(C)c3c-2c(Cl)ccc13 [AZD5991] (first compound max 1 µM, 7x7, partner max 1 µM)
combination Emax [1]: 0.273 | combination Emax [3]: 0.137 | combination Emax [4]: 0.137
